In the Kinase Knowledgebase extract (Sharma et al. 2016):

Biological target: PIK3CB (Human) (UniProt P42338)
Assay: Cell-Based Assay
Settings: mda-mb-468

PIK3CB (Human), sequence (P42338 whole entry, looked up): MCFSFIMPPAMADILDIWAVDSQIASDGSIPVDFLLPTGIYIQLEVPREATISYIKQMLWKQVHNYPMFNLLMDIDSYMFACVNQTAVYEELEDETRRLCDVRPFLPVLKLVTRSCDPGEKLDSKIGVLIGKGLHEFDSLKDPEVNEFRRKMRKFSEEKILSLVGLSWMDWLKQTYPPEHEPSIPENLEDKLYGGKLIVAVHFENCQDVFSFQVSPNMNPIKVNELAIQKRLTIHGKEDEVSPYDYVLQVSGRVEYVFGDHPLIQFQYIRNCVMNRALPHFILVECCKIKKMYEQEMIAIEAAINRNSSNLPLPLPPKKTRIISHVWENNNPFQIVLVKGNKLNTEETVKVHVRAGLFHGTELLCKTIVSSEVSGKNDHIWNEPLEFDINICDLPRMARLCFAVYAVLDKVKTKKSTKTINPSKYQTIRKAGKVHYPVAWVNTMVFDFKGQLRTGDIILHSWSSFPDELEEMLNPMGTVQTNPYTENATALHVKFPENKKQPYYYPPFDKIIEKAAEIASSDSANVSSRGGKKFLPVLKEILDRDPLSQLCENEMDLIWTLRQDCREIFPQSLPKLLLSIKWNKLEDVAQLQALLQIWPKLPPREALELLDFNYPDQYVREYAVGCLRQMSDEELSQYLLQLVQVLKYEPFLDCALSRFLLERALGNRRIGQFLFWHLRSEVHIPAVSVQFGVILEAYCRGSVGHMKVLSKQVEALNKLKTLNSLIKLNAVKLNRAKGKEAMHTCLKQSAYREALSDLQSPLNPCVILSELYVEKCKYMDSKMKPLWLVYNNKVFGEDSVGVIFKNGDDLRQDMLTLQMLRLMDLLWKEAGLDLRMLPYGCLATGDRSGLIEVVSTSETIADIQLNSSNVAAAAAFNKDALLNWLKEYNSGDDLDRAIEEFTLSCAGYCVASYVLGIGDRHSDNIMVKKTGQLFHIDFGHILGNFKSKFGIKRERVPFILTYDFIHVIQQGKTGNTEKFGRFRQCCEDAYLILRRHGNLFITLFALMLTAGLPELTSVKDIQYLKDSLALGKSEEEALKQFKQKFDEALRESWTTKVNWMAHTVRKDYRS

SMILES	EC50 [µM]
Cc1nn2c(O)cc(N3CCOCC3)nc2c1Cc1cccc(C(F)(F)F)c1C	5.01
Nc1nn2c(O)cc(C3CCOCC3)nc2c1Cc1cccc(Cl)c1Cl	10
Cc1c(Cc2cnn3c(O)cc(-c4ccncc4)nc23)cccc1C(F)(F)F	15.8
COc1nn2c(O)cc(-c3ccncc3)nc2c1Cc1cccc(Cl)c1Cl	25.1
Cc1nn2c(O)cc(N3CCOCC3)nc2c1Cc1cccc2ccccc12	3.98
Cc1nn2c(O)cc(C3CCOCC3)nc2c1Cc1cccc(C(F)(F)F)c1C	15.8

More lines, now with the values ahead:

EC50 [µM]	SMILES
1.26	Cc1nn2c(NC(N)=O)cc(N3CCOCC3)nc2c1Cc1cccc(C(F)(F)F)c1C
3.16	Cc1nn2c(C(=O)O)cc(N3CCOCC3)nc2c1Cc1cccc(C(F)(F)F)c1C
2	Cc1nn2c(C(N)=O)cc(N3CCOCC3)nc2c1Cc1cccc(C(F)(F)F)c1C
3.16	Cc1c(Cc2cnn3c(O)cc(N4CCOCC4)nc23)cccc1C(F)(F)F

Biological target: PIK3CB (Human) (UniProt P42338)
Assay: Enzyme Assay
Settings: not given

IC50 [µM]	SMILES
0.000631	CC1=NC(=O)C2SC(N3CCOCC3)=NC2N1Cc1cccc(C(F)(F)F)c1C (configuration not stated)
0.0631	Cc1c(Cc2c(O)nn3c(O)cc(C4CCOCC4)nc23)cccc1C(F)(F)F
